Measured values taken from patent publication US8575376B2, “Steroide anionic compounds, method of their production, usage and pharmaceutical preparation involving them” (Ustav Organicke Chemie A Biochemie Akademie Ved Ceske …, priority 2009, dated 2013).

How the values were obtained:
[1] = target: T1, recombinant NR1/NR2B receptors (Rattus norvegicus, UniProt P35439+Q00960); assay: Patch-clamp, inhibition of glutamate responses of recombinant NMDA receptors in transfected HEK293 cells; format: cell-based
T1 construct: expressed in transfected cells; host or cells: HEK293 cells (ATCC CRL1573)

rats [2] = assay: AAPA task after MK-801 (animal model of schizophrenia); format: in vivo, rat; settings: for locomotion activity in AAPA (total distance): vs control
Protocol: The effect of compound from example 9 application on changes in behavior and locomotor activity in animal model of schizophrenia was monitored. Schizophrenia-like behavior in rats was induced by dizocilpine (MK-801) administration. […] was administered in doses of 0.001 mg/kg, 0.01 mg/kg, 0.1 mg/kg and 10 mg/kg. Spatial orientation and cognitive function of rats were assessed in active allothetic place avoidance task (AAPA).
Schizophrenia-like behaviour in rats was induced by administration of dizocilpine (MK-801). Spatial navigation and cognitive functions of rats were assessed in active alothetic place avoidance task (AAPA). In addition, this task allows simultaneous assessment of potential differences in locomotory activity. The AAPA task requires rats moving on a continuously rotating (1 rpm) smooth metallic circular arena to avoid an unmarked place defined in the coordinates of the experimental room. The avoidance is reinforced by a mild electric foot-shock administered automatically upon entering the to-be avoided place.
The AAPA task is highly dependent on hippocampal function, since even a unilateral inactivation of thstructure hippocampus impairs this behaviour. Animals have to actively and repeatedly move away from the to-be-avoided place otherwise they are brought there by the arena rotation. Each AAPA session lasts 20 min and 4 sessions were conducted over 4 consecutive days.
Rats received 0.1 mg/kg MK-801 alone or co-administered with the compound from example 9 (dissolved in β-cyclodextrine) in doses of 0.001 mg/kg, 0.01 mg/kg, 0.1 mg/kg, and 10 mg/kg. Control animals received saline. […] It is for a common animal model of schizophrenia-like behaviour.
The results are shown in FIGS. 21-23, where means and standard errors of the mean (S.E.M.) are represented for individual sessions. Statistic analysis was for better clarity stated always for the last session, when an asymptotic level of performance in control animals was reached.

rats [3] = assay: Active allothetic place avoidance (AAPA) task, compound applied alone; format: in vivo, rat; settings: Example 9 1 and 10 mg/kg s.c., dizocilpine 0.1-0.3 mg/kg i.p.
Protocol: The effect of compound from Example 9 on cognitive behaviors and locomotion was assessed using active allothetic place avoidance (AAPA) task, which requires intact hippocampi and ability of animals to navigate in space using distinct reference frames (spatial navigation and “cognitive coordination”) (Wesierska et al., 2005) and it also allows measuring changes in the accompanying locomotor activity. AAPA task training involves animals trained to move over a slowly rotating uniform circular arena, on which a prohibited sector is defined, entering which is punished by a mild footshock. A shock sector and its position can be determined solely by its relationship to distal orienting cues in the room (Stuchlik et al., 2008).
This task is highly dependent upon hippocampal formation, with unilateral reversible ablation of this structure with TTX leading to avoidance deficit (Cimadevilla et al., 2001). Animals solving this task should walk in a direction opposite to arena rotation; otherwise it would be repeatedly brought to a fixed sector by arena rotation. We conducted 4 acquisition session of AAPA task, during which the sector location was always reinforced and remained stable throughout the training. Each session lasted 20 min.
Control animals obtained saline intraperitoneally (i.p.) whilst experimental groups received subcutaneous (s.c.) injections of the compound from Example 9 at doses 1 mg/kg and 10 mg/kg (dissolved in cyclodextrin). Solution of compound from Example 9 (1 mg/2 ml or 10 mg/2 ml in cyclodextrin) was applied s.c. at a volume 2 ml/kg of body weight (b.w.). Intraperitonal application of dizocilpine (a non-competitive NMDA receptor antagonist; showing significant neuroprotective activity but exerting cognition-disturbing and psychotomimetic effects) was used as a positive control. Dizocilpine was applied at doses 0.1 mg/kg, 0.2 mg/kg and 0.3 mg/kg. It is worth noting that dizocilpine (albeit its experimental neuroprotective activity) is often used to model schizophrenia-like behaviors in […] and it has been repeatedly shown to exert a dose-dependent learning deficit and hyperlocomotion.

T1 sequence (Q00960 27-1482, other chains not shown): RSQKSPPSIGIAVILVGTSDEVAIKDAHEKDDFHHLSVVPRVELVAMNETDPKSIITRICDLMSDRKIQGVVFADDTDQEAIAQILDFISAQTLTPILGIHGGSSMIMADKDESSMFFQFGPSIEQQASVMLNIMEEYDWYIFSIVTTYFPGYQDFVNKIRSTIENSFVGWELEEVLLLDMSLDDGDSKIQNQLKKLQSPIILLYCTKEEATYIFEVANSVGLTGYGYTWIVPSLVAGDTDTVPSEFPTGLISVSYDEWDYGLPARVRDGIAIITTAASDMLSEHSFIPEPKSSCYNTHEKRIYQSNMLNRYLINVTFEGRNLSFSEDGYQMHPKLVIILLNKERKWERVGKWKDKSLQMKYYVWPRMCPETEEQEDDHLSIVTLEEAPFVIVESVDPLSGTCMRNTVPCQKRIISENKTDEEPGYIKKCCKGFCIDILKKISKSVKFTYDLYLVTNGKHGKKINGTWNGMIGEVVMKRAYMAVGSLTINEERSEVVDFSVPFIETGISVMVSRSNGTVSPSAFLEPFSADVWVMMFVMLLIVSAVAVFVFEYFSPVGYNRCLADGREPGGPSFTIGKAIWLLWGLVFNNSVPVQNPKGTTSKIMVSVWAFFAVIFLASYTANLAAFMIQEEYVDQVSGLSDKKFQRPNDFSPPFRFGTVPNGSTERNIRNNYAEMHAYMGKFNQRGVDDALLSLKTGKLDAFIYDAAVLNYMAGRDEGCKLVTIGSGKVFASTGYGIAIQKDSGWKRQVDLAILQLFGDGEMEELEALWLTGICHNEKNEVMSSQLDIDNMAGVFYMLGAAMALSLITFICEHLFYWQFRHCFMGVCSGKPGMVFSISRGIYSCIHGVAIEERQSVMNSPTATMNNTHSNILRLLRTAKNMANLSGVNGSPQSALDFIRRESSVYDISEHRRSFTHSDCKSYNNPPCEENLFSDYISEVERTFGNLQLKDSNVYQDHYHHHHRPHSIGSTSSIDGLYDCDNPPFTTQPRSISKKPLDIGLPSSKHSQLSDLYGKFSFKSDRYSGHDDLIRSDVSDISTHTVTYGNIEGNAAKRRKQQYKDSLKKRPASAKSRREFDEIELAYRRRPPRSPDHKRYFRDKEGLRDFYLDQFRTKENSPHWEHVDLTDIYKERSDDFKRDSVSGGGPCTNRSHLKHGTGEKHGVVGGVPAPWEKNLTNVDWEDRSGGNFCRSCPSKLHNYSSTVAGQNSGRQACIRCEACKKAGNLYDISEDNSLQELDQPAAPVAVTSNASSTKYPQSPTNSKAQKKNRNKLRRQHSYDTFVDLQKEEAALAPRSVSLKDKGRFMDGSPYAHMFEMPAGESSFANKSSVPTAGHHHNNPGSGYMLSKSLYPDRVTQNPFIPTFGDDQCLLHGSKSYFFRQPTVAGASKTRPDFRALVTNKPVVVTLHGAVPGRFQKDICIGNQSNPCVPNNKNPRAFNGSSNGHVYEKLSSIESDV

## CC(=O)[C@H]1CC[C@H]2[C@@H]3CC[C@@H]4C[C@H](OC(=O)[C@@H](N)CCC(=O)O)CC[C@]4(C)[C@H]3CC[C@]12C [Example 9, 20-Oxo-5β-pregnan-3α-yl L-glutamyl 1-ester]
[1]; calculated from relative inhibition with Hill's coefficient 1.2
  IC50: 73 µM
[1]; responses to 1 mM glutamate, -60 mV, HEK293 NR1-1a/NR2B, steroid 50, 100 or 200 μM
  Relative inhibition effect (%): 77.1 ± 5.2%
Rats [2]; Example 9 0.001, 0.01, 0.1 and 10 mg/kg + MK-801 0.1 mg/kg
  MK-801-induced deficit in number of errors in AAPA: reversed this deficits at all doses
Rats [2]; Example 9 0.001, 0.01 and 0.1 mg/kg + MK-801 0.1 mg/kg
  locomotion activity in AAPA (total distance): showed neither increase nor decrease of locomotion activity
Rats [2]; Example 9 0.001, 0.01 and 10 mg/kg + MK-801 0.1 mg/kg
  MK-801-induced deficit in maximum time of avoidance in AAPA: reversed this deficit
Rats [2]; Example 9 10 mg/kg + MK-801 0.1 mg/kg
  locomotion activity in AAPA (total distance): increased locomotor activity compared to controls
Rats [3]
  maximum time avoided in AAPA: did not significantly impaired cognitive performance compared to control animals
  number of entrances into shock sector in AAPA: neither of doses of compound from Example 9 caused worsening in this parameter
Rats [3]; 20-min sessions
  total distance traveled in AAPA (locomotor activity): failed to exhibit either decrease or increase in total distance compared to controls
